Reference: ChEMBL document CHEMBL5053523, “Design, synthesis, and structure-activity relationship of PD-1/PD-L1 inhibitors with a benzo[d]isoxazole scaffold” (Bioorg Med Chem Lett, 2021)

Each molecule was assayed against T1, Programmed cell death protein 1/Programmed cell death 1 ligand 1 (Homo sapiens, UniProt Q15116+Q9NZQ7) (assay: Inhibition of PD-1/PDL1 protein-protein interaction (unknown origin) by HTRF assay).
Assay type: protein-complex assay

T1 sequence (Q15116 whole entry): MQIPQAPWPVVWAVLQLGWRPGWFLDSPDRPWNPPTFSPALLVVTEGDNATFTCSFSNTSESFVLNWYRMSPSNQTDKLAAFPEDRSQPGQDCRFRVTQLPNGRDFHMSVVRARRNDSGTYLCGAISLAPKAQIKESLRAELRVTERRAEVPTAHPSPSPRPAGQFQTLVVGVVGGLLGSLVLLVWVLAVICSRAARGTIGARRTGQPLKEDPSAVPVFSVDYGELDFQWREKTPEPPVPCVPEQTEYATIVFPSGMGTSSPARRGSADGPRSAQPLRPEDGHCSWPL
T1 sequence (Q9NZQ7 whole entry): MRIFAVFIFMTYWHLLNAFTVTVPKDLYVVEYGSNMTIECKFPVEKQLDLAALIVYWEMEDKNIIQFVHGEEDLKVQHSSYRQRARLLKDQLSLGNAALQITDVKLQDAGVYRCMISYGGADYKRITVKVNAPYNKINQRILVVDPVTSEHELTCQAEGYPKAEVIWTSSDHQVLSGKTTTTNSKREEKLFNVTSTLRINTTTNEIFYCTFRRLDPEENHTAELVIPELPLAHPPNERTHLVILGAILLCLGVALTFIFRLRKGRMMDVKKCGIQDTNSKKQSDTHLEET

| Structure (SMILES) | IC50 [nM] |
| --- | --- |
| O=C(O)CNCc1ccc2c(Nc3cccc(-c4ccccc4)c3Cl)noc2c1 | 718 |
| O=C(O)CNCc1ccc2onc(Nc3cccc(-c4ccccc4)c3Cl)c2c1 | 30.5 |
| CC(=O)NCCNCc1ccc2c(Nc3cccc(-c4ccccc4)c3Cl)noc2c1 | 2030 |
| O=C(O)[C@H](CO)NCc1ccc2onc(Nc3cccc(-c4ccccc4)c3Cl)c2c1 | 26.8 |
| O=C(O)CNCc1ccc2c(Nc3cccc(-c4ccc5c(c4)OCCO5)c3Cl)noc2c1 | 383 |
| O=C(O)[C@H](CO)NCc1ccc2c(Nc3cccc(-c4ccc5c(c4)OCCO5)c3Cl)noc2c1 | 1720 |
| CC(=O)NCCNCc1ccc2onc(Nc3cccc(-c4ccccc4)c3Cl)c2c1 | 193 |
| OCCNCc1ccc2c(Nc3cccc(-c4ccc5c(c4)OCCO5)c3Cl)noc2c1 | 756 |
| O=C(O)[C@H](CO)NCc1ccc2onc(Nc3cccc(-c4ccc5c(c4)OCCO5)c3Cl)c2c1 | 51.3 |
| O=C(O)[C@H](CO)NCc1ccc2c(Nc3cccc(-c4ccccc4)c3Cl)noc2c1 | 2390 |
| OCCNCc1ccc2c(Nc3cccc(-c4ccccc4)c3Cl)noc2c1 | 6490 |
| O=C(O)C1CCN(Cc2ccc3onc(Nc4cccc(-c5ccccc5)c4Cl)c3c2)CC1 | 610 |
| CC(=O)NCCNCc1ccc2onc(Nc3cccc(-c4ccc5c(c4)OCCO5)c3Cl)c2c1 | 438 |
| O=C(O)C1CN(Cc2ccc3onc(Nc4cccc(-c5ccccc5)c4Cl)c3c2)C1 | 364 |
| O=C(O)CNCc1ccc2onc(Nc3cccc(-c4ccc5c(c4)OCCO5)c3Cl)c2c1 | 91.6 |
| OCCNCc1ccc2onc(Nc3cccc(-c4ccc5c(c4)OCCO5)c3Cl)c2c1 | 3020 |
| COC(=O)[C@H](CO)NCc1ccc2onc(Nc3cccc(-c4ccccc4)c3Cl)c2c1 | 1620 |
| CC(=O)NCCNCc1ccc2c(Nc3cccc(-c4ccc5c(c4)OCCO5)c3Cl)noc2c1 | 834 |
| OCCNCc1ccc2onc(Nc3cccc(-c4ccccc4)c3Cl)c2c1 | 803 |
| OC1CCN(Cc2ccc3onc(Nc4cccc(-c5ccc6c(c5)OCCO6)c4Cl)c3c2)C1 (racemic) | 1280 |
| OC1CCN(Cc2ccc3c(Nc4cccc(-c5ccccc5)c4Cl)noc3c2)C1 (racemic) | 1490 |
| OC1CCN(Cc2ccc3onc(Nc4cccc(-c5ccccc5)c4Cl)c3c2)C1 (racemic) | 464 |
| O=C(O)C1CCN(Cc2ccc3onc(Nc4cccc(-c5ccccc5)c4Cl)c3c2)C1 (racemic) | 452 |
| O=C(O)C1CCN1Cc1ccc2onc(Nc3cccc(-c4ccccc4)c3Cl)c2c1 (racemic) | 480 |
| O=C(O)C1CCCN1Cc1ccc2onc(Nc3cccc(-c4ccccc4)c3Cl)c2c1 (racemic) | 85.8 |
| O=C(O)C1CCCCN1Cc1ccc2onc(Nc3cccc(-c4ccccc4)c3Cl)c2c1 (racemic) | 71.2 |
| OC1CCN(Cc2ccc3c(Nc4cccc(-c5ccc6c(c5)OCCO6)c4Cl)noc3c2)C1 (racemic) | 1680 |
| O=C(O)C1CCCN(Cc2ccc3onc(Nc4cccc(-c5ccccc5)c4Cl)c3c2)C1 (racemic) | 92.8 |

The molecules below were run against T1, Programmed cell death protein 1/Programmed cell death 1 ligand 1 (assay: Inhibition of PD-1/PDL1 protein-protein interaction (unknown origin)).
Assay type: protein-complex assay

| Structure (SMILES) | IC50 [nM] |
| --- | --- |
| N#Cc1cncc(COc2cc(OC3CCc4c(-c5ccccc5)cccc43)c(Cl)cc2CN[C@@H](CO)C(=O)O)c1 (stereo partly specified) | < 100 |
| Cc1c(/C=C/c2c(Cl)cc(CNC(C)(CO)C(=O)O)cc2C(F)(F)F)cccc1-c1ccc2c(c1)OCCO2 (stereo unspecified) | 18 |
| Cc1c(NC(=O)c2cccc(CNCCO)n2)cccc1-c1ccccc1 | ≤ 10 |
